The text below walks through data of PMC10831071, “Reaction hijacking inhibition of Plasmodium falciparum asparagine tRNA synthetase” (Nature Communications, 2024).

Where “and” joins values, the source holds several entries; their conditions need not be identical. Equal values may be shown once. Read-outs that look alike come from different tables or passages of the source.

One assay has as its target PfAsnRS (Plasmodium falciparum, UniProt O96198). Briefly: biochemical. The following applies: for ATP consumption: PfAsnRS.
The next assay addresses T1, HsAsnRS (Homo sapiens, UniProt O43776).
T1 construct: HsAsnRS (residues M1–P548) and CDHsAsnRS (residues A98–P548); His6 (N, cleaved yes); made in house; host or cells: E. coli BL21 (DE3), pET11a
T1 sequence (O43776 1-548): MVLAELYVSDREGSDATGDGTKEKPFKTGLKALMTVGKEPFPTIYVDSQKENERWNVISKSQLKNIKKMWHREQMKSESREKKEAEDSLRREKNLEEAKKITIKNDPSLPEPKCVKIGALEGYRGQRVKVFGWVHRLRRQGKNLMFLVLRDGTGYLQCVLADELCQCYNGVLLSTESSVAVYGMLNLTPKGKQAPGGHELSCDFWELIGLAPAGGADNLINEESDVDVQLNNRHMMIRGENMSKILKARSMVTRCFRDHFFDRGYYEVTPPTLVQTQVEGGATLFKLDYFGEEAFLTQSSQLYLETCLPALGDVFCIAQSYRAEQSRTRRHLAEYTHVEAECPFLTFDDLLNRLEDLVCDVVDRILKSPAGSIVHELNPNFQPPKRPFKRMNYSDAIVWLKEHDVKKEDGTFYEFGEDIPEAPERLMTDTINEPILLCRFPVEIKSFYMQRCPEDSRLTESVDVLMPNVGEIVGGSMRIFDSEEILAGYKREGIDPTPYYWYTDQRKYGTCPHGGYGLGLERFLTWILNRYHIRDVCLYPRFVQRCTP
The assay can be described thus: ATP consumption assay (Kinase-Glo), HsAsnRS. The format is biochemical. The following applies: for ATP consumption: HsAsnRS. Background: In Kinase-Glo more light means more ATP remaining.

The test system of assay [1] is P. falciparum Dd2-B2 clone. The assay can be described thus: microbe, parasite or virus in culture. The format is cell-based, Plasmodium falciparum. The source says: Wells were monitored daily by smear during the first 7 days to ensure parasite clearance, during which media was changed daily. […] Whole-genome sequencing analysis employed MiSeq data from libraries of 2 × 300 bp paired end reads.

Assay [2] concerns DSM265-selected recrudescent Dd2-B2 cultures (G7, F3). The assay can be described thus: Sensitivity of DSM265-selected bulk recrudescent cultures. To be noted: for IC50: Plasmodium falciparum. The format is cell-based, Plasmodium falciparum.
Another assay deals with P. falciparum (3D7). The assay can be described thus: Activity against P. falciparum 3D7 cultures, 72 h (PfLDH growth inhibition / flow cytometry). The format is cell-based, Plasmodium falciparum. On the procedure:
Antimalarial activity against P. falciparum 3D7 was tested by TCGLS, Kolkata, India, using the lactate dehydrogenase (PfLDH) growth inhibition assay. […] Plates were shaken to ensure mixing and were placed in the dark at 21 °C for 20 min. […] P. falciparum strain (3D7) was obtained from BEI Resources.
Viability was assessed in the second cycle by flow cytometry, following labeling with 2 μM Syto-61 (Thermo Fisher Scientific)[48],[49]. Viability represents the parasitemia normalized to untreated and “kill” controls that were treated with 2 μM dihydroartemisinin (DHA; Sigma-Aldrich) for 48–72 h. For drug pulse assays, tightly synchronized Cam3.II-rev[50] parasites (1–1.5% parasitemia, 0.2% final hematocrit) were added to the plates and incubated for 6 h. Drugs were removed and the parasitemia assessed in the trophozoite stage of the next cycle.

Setting [3] is: Plasmodium falciparum, 3D7, 72 h, read-out: Pf3D7 IC50 (72h), individual biological repeats (source data of Table 1).
Where [4] appears, read: Plasmodium falciparum, 3D7, 72 h, read-out: Pf3D7 IC50(72 h), 72 h, mean ± SD or duplicate values.
Setting [5] is: Plasmodium falciparum, 3D7, read-out: activity against 3D7 cultures, value of earlier manuscript version quoted by reviewer, peer review file.
The mark [6] stands for this setting: read-out: Pf3D7 IC50 (72h), individual biological repeats (source data of Table 1).

Sequence of PfAsnRS (O96198 entry or part of it): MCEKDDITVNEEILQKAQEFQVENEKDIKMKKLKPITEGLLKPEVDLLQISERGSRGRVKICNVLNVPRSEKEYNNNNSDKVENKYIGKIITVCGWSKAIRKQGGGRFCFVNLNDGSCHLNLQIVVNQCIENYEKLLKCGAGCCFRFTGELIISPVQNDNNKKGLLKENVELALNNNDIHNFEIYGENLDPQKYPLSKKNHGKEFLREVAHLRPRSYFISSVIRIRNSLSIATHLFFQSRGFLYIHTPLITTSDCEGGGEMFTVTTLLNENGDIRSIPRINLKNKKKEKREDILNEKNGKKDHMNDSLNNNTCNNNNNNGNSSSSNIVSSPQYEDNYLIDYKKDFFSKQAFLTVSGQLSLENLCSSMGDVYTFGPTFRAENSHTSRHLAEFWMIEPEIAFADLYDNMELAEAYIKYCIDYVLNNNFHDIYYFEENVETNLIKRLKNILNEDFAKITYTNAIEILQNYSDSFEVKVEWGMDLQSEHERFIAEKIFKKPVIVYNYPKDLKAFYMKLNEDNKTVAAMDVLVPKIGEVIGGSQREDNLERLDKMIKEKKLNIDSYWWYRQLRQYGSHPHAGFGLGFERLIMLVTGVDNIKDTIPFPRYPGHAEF

As to `NC(=O)C[C@H](N)C(=O)NS(=O)(=O)c1cccc(-c2cc3ncnc(N)c3s2)c1` [Asn-OSM-S-106], the ATP consumption at PfAsnRS (0.005 μM Asn-OSM-S-106, 0 μM = 100 (Fig 3F), 0.005 µM) is 96.6227 and 115.849 and 86.517 and 87.5323; at PfAsnRS (0.05 μM Asn-OSM-S-106, 0 μM = 100 (Fig 3F), 0.05 µM) it was 102.641 and 101.648 and 126.552 and 109.716 and 83.8806 and 85.0945; at PfAsnRS (0.1 μM Asn-OSM-S-106, normalised to 1 (Fig 3E), 0.1 µM), 0.9937 and 0.8109; on PfAsnRS (0.5 μM Asn-OSM-S-106, 0 μM = 100 (Fig 3F), 0.5 µM) it was 95.6169 and 98.8652 and 117.558 and 102.603 and 76.814 and 78.5601; on PfAsnRS (1 μM Asn-OSM-S-106, normalised to 1 (Fig 3E), 1 µM), 0.8236 and 0.8406; at PfAsnRS (3 μM Asn-OSM-S-106, normalised to 1 (Fig 3E), 3 µM) it was 0.3452 and 0.4265. For the same compound, the ATP consumption on PfAsnRS (10 μM Asn-OSM-S-106, normalised to 1 (Fig 3E), 10 µM) was 0.09706 and 0.1733; at HsAsnRS (0.1 μM Asn-OSM-S-106, normalised to 1 (Fig 3E)), 1 and 0.9164 and 0.9986; at HsAsnRS (0.3 μM Asn-OSM-S-106, normalised to 1 (Fig 3E)), 0.9525 and 1; on HsAsnRS (1 μM Asn-OSM-S-106, normalised to 1 (Fig 3E)) it was 0.8864 and 0.9489 and 0.9329; at HsAsnRS (3 μM Asn-OSM-S-106, normalised to 1 (Fig 3E)) it was 0.7684 and 0.8281 and 0.785; at HsAsnRS (10 μM Asn-OSM-S-106, normalised to 1 (Fig 3E)) it was 0.5231 and 0.5272 and 0.5151. The ATP consumption on HsAsnRS (30 μM Asn-OSM-S-106, normalised to 1 (Fig 3E)) was 0.2926 and 0.3365 and 0.2915; on HsAsnRS (100 μM Asn-OSM-S-106, normalised to 1 (Fig 3E)), 0.09965 and 0.131 and 0.08856. The compound also returned an IC50 against HsAsnRS (0.5 μM enzyme without tRNA (Fig. 3E)) of 12 µM.

On to `Cc1cc(Nc2ccc(S(F)(F)(F)(F)F)cc2)n2nc(C(C)(F)F)nc2n1` [DSM265], for which the IC50 amounted to 0.0226 µM in assay [1] (Plasmodium falciparum, DD2, read-out: Mean IC50 + SEM (N)); 0.0566 µM in assay [2] (read-out: Mean IC50 + SEM (N), recrudescent culture DSM265_F3); 0.071 µM in assay [2] (read-out: Mean IC50 + SEM (N), recrudescent culture DSM265_G7). Further, the “Minimum Inoculum for Resistance (MIR)” value in assay [1] (reference selection at 5 × IC50 (58 nM), 2 × 10^5 parasites per well, 96 wells) is on record as 1.4 × 10^6 parasites. In addition, in assay [1] (reference selection at 5 × IC50 (58 nM), 96-well plate), the recrudescent wells was 14 and 14/96. Also, the “Fold Shift” value in assay [2] (DSM265_F3 vs Dd2-B2 parent) is 2.5; in assay [2] (DSM265_G7 vs Dd2-B2 parent) it was 3.1.

For the compound `Cc1ccc(S(N)(=O)=O)cc1-c1cc2ncnc(N)c2s1` [OSM-E-32], in the assay with P. falciparum (3D7) (setting [3]), the IC50 amounted to 8.33 µM.

Turning to `Nc1ncnc2cc(-c3cccc(OS(N)(=O)=O)c3)sc12` [OSM-LO-80], the IC50 is above 100 µM against PfAsnRS; above 100 µM against HsAsnRS (0.2 μM HsAsnRS, E. coli tRNA present, 37 °C, 1 h (Fig. 3C, D)); 5.1 ± 3.2 µM in the assay with P. falciparum (3D7) (setting [4]); 2.1 µM in the assay on P. falciparum (3D7) (setting [5]); 1.72 µM and 1.7 µM and 8 µM and 8.04 µM and 8.28 µM and 7.95 µM and 2.49 µM and 2.41 µM with P. falciparum (3D7) (setting [6]). The ATP consumption is 0.9991 at PfAsnRS (0.1 μM OSM-LO-80, normalised to 1 (Fig 3C), 0.1 µM); 0.918 and 0.9991 at PfAsnRS (1 μM OSM-LO-80, normalised to 1 (Fig 3C), 1 µM); 0.8254 and 0.8439 on PfAsnRS (3 μM OSM-LO-80, normalised to 1 (Fig 3C), 3 µM); 0.7121 and 0.7363 at PfAsnRS (10 μM OSM-LO-80, normalised to 1 (Fig 3C), 10 µM); 0.597 and 0.5984 on PfAsnRS (30 μM OSM-LO-80, normalised to 1 (Fig 3C), 30 µM); 0.5737 and 0.5517 on PfAsnRS (100 μM OSM-LO-80, normalised to 1 (Fig 3C), 100 µM). Also, the ATP consumption at HsAsnRS (0.1 μM OSM-LO-80, normalised to 1 (Fig 3C)) was 0.9993 and 0.9657 and 0.9905; at HsAsnRS (1 μM OSM-LO-80, normalised to 1 (Fig 3C)), 1 and 0.9892 and 0.9767; at HsAsnRS (3 μM OSM-LO-80, normalised to 1 (Fig 3C)) it was 0.9847 and 1 and 0.9888; on HsAsnRS (10 μM OSM-LO-80, normalised to 1 (Fig 3C)) it was 1.009 and 0.9926 and 0.9928; at HsAsnRS (30 μM OSM-LO-80, normalised to 1 (Fig 3C)) it was 0.9786 and 0.9717 and 1; on HsAsnRS (100 μM OSM-LO-80, normalised to 1 (Fig 3C)) it was 0.9628 and 0.9785 and 0.9921.

As to `Nc1ncnc2cc(-c3cccc(COS(N)(=O)=O)c3)sc12` [OSM-LO-81], the IC50 was 0.93 ± 0.24 µM in the assay on P. falciparum (3D7) (setting [4]); 1.1 µM in the assay with P. falciparum (3D7) (setting [3]); 0.9 µM in the assay with P. falciparum (3D7) (setting [5]); 1.33 µM and 0.74 µM and 0.761 µM and 0.909 µM and 0.753 µM with P. falciparum (3D7) (setting [6]).

In the case of `NS(=O)(=O)c1cccc(-c2ccc3c(=O)[nH]cnc3c2)c1` [OSM-LO-87], the “antimalarial potency (in words)” value in the assay with P. falciparum (3D7) (3D7 cultures) was “no antimalarial potency”. Besides, the IC50 with P. falciparum (3D7) (setting [4]), with P. falciparum (3D7) (setting [3]) and in the assay on P. falciparum (3D7) (setting [6]) was above 25 µM throughout.

`NS(=O)(=O)c1cccc(-c2cc3nc[nH]c(=O)c3s2)c1` [OSM-LO-88]: the IC50 was 18.7 ± 1.8 µM with P. falciparum (3D7) (setting [4]); 19.2 µM in the assay on P. falciparum (3D7) (setting [3]); 21.9 µM and 18.6 µM and 17.5 µM and 16.5 µM with P. falciparum (3D7) (setting [6]).

`NS(=O)(=O)c1cccc(-c2cc3ncnc(N4CCN(Cc5ccc(F)cc5)CC4)c3s2)c1` [OSM-S-137]: the IC50 in the assay on P. falciparum (3D7) (setting [4]) was 4.4 ± 3 µM; with P. falciparum (3D7) (setting [6]), 2.65 µM and 1.2 µM and 6.07 µM and 7.69 µM.

`CNS(=O)(=O)c1cccc(-c2cc3ncnc(N)c3s2)c1` [OSM-S-488]: the IC50 in the assay on P. falciparum (3D7) (setting [3]) came out at 12.7 µM; with P. falciparum (3D7) (setting [6]), 13.8 µM.
